Tests used:
Serotonin 5-HT2A [1] = molecular target: T1, Serotonin 5-HT2A (Homo sapiens, UniProt P28223); experiment: Receptor binding studies, inhibition of human serotonin 5-HT2A receptor; conditions: read-out: inhibition of the human serotonin 5-HT2A receptor
[2] = system: serotonin receptor (e.g., 5-HT2A), dopamine receptor (e.g., D2) and serotonin transporter; experiment: Receptor binding studies, binding profile compared to Formula Q
[3] = Measurement of parent and amide metabolite levels in mice after single oral dose; type: in vivo; conditions: for extent of amide formation compared to compound Q after normalizing for internal standard: normalized to internal standard
Description: The compound of Comparative Example 4 is used as an internal standard in each study in order to control for differences in the inherent rate of metabolism in each study's animal group. […] The maximum concentration, time to maximum concentration, and Area Under the Curve (AUC) for both the parent and the major amide metabolite is determined. […] Relative Amide Formation is thus calculated as follows for each Example X (i.e., Ex. 1, Ex. 2, Ex. 3 and Ex. Q): [formula]

[4] = Pharmacokinetics in dogs, SL and SC, plasma parent and metabolite AUC; type: in vivo, beagle dogs; conditions: dog
Description: The pharmacokinetics of each compound is determined after both sublingual (SL) and subcutaneous (SC) administration in non-cross over sequential studies in dogs.
SC Administration: Six male beagle dogs between 2 and 5 years of age are randomized in two groups of three dogs each. […] Dogs in group 2 are administered the compound of Example 2 at a dose of 1 mg/kg (free base equivalent) in a 0.5% methylcellulose/distilled water vehicle. Administration is subcutaneous in the intrascapular region via a 22 or 23 gauge needle. Whole blood samples are collected via the dog's cephalic vein pre-dose, and at post-dose time-points 5, 15 and 30 minutes, 1, 2, 4, 6, 8 and 24 hours. Following a minimum 7-day washout period, the dogs are transferred to the sublingual portion of the study.
Dogs in group 2 are administered the compound of Example 2 at a dose of 1 mg/kg (free base equivalent) in a 0.5% methylcellulose/distilled water vehicle. The animals are anesthetized prior to administration of the dose using propofol (6 mg/kg) and anesthesia is maintained for 30 minutes using 3-4.5% isoflurane. Administration is sublingual and the dosage is applied for 30 minutes, then wiped off using unwoven gauze. Whole blood samples are collected via the dog's cephalic vein pre-dose, and at post-dose time-points 5, 15 and 30 minutes, 1, 2, 4, 6, 8, 24, 36 and 48 hours.
All blood samples are processed to plasma and analyzed for parent and metabolite concentrations using liquid chromatography-tandem mass spectrometry (LC-MS/MS). […] Area under the curve (AUC) of parent and metabolites based on plasma versus time data are calculated using Prism 5.04 software (GraphPad Software, Inc.).

[5] = Pharmacokinetics in rats, PO and IV cross-over, plasma parent and metabolite AUC; type: in vivo; conditions: male, Sprague-Dawley, rat
Description: The pharmacokinetics of each compound is determined after both oral (PO) and intravenous (IV) administration in cross-over studies in rats.
PO Administration: Six male Sprague-Dawley rats are divided into two 3-rat groups for PO administration of compound on day 1 of the study. […] Blood samples are collected at 0.25, 0.5, 1, 2, 4, 6, 8, 12 and 24-hours post dose and analyzed for plasma concentration of the administered compound and its metabolites.
IV Administration: Six male Sprague-Dawley rats are divided into two 3-rat groups for IV administration of compound on day 1 of the study. […] Blood samples are collected at 2 minutes, 5 minutes, 0.25, 0.5, 2, 4, 6, 8 and 12 hours post dose and analyzed for plasma concentration of the administered compound and its metabolites.
All blood samples are processed to plasma and analyzed for parent and metabolite concentrations using liquid chromatography-tandem mass spectrometry (LC-MS/MS). The metabolites analyzed include the N-demethylated amide compound Q-1 (discussed supra). Area under the curve (AUC) of parent and metabolites based on plasma versus time data are calculated using Prism 5.04 software (GraphPad Software, Inc.).

Dopamine D1 = Dopamine D1 (Homo sapiens, UniProt P21728); experiment: Receptor activity Ki, dopamine D1; type: binding
Serotonin 5-HT2A [6] = molecular target: T1, Serotonin 5-HT2A; experiment: biochemical
Dopamine D2 = Dopamine D2 (Homo sapiens, UniProt P14416); experiment: Receptor activity Ki, dopamine D2; type: binding
Serotonin Transporter = Serotonin Transporter (Homo sapiens, UniProt P31645); experiment: Receptor activity Ki, serotonin transporter; type: binding
Chain of Serotonin Transporter (P31645 whole entry): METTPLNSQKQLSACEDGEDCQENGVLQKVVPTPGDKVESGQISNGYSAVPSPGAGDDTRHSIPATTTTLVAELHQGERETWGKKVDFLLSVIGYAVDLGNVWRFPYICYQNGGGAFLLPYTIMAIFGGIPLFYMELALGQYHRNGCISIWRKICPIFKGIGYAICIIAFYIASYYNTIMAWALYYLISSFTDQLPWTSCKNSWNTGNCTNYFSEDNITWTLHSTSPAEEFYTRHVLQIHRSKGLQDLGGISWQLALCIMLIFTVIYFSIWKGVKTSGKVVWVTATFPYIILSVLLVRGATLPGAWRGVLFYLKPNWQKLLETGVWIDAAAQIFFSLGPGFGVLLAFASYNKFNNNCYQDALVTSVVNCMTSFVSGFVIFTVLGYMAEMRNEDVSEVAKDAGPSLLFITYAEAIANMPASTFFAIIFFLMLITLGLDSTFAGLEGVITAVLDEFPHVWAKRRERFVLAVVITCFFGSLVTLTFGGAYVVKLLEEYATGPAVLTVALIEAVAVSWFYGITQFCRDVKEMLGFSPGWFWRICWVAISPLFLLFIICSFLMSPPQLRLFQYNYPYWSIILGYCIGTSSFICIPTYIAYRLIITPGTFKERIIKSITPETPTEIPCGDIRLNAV

Chain of Dopamine D2 (P14416 whole entry): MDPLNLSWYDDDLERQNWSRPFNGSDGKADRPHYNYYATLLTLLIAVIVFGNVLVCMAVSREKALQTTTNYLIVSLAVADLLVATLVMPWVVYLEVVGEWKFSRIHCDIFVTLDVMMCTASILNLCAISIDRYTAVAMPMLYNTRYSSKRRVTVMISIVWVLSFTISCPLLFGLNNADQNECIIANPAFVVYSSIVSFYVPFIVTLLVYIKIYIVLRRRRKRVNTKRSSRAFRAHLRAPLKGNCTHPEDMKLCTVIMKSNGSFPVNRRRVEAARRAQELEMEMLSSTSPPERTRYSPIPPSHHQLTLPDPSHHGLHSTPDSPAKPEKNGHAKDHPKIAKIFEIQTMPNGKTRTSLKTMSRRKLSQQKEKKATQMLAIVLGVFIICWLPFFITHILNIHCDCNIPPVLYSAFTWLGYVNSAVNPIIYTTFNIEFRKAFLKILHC
T1 sequence (P28223 whole entry): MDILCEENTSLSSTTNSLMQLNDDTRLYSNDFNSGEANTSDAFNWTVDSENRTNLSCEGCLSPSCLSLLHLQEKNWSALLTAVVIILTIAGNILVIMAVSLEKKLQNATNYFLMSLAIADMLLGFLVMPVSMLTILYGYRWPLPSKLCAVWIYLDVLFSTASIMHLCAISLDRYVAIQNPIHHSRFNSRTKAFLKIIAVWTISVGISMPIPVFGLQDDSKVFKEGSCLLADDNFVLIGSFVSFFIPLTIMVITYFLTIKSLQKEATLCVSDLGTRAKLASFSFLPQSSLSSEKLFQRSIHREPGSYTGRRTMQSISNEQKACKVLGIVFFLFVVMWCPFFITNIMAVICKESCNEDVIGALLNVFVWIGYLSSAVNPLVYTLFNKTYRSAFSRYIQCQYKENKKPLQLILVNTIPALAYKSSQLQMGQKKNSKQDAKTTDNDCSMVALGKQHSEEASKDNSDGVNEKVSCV
Chain of Dopamine D1 (P21728 whole entry): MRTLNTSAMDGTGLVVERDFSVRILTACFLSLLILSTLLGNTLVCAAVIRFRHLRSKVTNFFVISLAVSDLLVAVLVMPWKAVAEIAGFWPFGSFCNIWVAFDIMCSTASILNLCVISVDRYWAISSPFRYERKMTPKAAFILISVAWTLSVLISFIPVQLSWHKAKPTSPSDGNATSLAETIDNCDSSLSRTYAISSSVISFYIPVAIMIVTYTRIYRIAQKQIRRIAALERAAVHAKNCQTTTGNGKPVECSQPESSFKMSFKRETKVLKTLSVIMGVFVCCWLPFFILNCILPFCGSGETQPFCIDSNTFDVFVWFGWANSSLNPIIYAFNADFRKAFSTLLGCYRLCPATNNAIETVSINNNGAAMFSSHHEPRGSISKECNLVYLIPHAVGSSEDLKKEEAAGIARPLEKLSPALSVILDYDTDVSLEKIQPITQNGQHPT

| extent of conversion of the parent compound to the amide metabolite compared to Formula Q [3] | extent of amide formation compared to compound Q after normalizing for internal standard [3] | AUC ([5]; iv, 1 mg/kg) [ng·h/mL] | AUC ([5]; po, 10 mg/kg) [ng·h/mL] | Structure (SMILES) | receptor binding profile compared to Formula Q [2] | Ki (Dopamine D2) [µM] | Ki (Serotonin Transporter) [µM] | also measured |
| --- | --- | --- | --- | --- | --- | --- | --- | --- |
| considerably lower | significantly lower | 257 | 58.5 | [2H]C1([2H])CN2c3c(cccc3N1C)[C@@H]1CN(CCCC(=O)c3ccc(F)cc3)CC[C@@H]12 (stereo in doubt) [Example 2, 2,2-D2-1-(4-fluorophenyl)-4-((6bR,10aS)-3-methyl-2,3,6b,7,10,10a-hexahydro-1H-pyrido[3′,4′:4,5]pyrrolo[1,2,3-de]quinoxalin-8(9H)-yl)butan-1-one] | substantially the same receptor binding profile | – | – | inhibition at 0.1 µM (Serotonin 5-HT2A [1]): 98%; higher parent AUC compared to dosing of Formula Q ([4]; SL dosing): about 72%; higher parent AUC for SL compared to SC ([4]; SL vs SC): 61% |
| considerably lower | significantly lower | – | – | [2H]C([2H])([2H])N1CCN2c3c(cccc31)[C@@H]1CN(CCCC(=O)c3ccc(F)cc3)CC[C@@H]12 [Example 1, 1-(4-Fluorophenyl)-4-((6bR,10aS)-3-methyl-d3-2,3,6b,7,10,10a-hexahydro-1H-pyrido[3′,4′:4,5]pyrrolo[1,2,3-de]quinoxalin-8(9H)-yl)butan-1-one p-toluenesulfonate] | substantially the same receptor binding profile | – | – | – |
| considerably lower | significantly lower | – | – | [2H]C([2H])([2H])N1c2cccc3c2N(CC1([2H])[2H])[C@H]1CCN(CCCC(=O)c2ccc(F)cc2)C[C@@H]31 [Example 3, 2,2-D2-1-(4-fluorophenyl)-4-((6bR,10aS)-3-methyl-d3-2,3,6b,7,10,10a-hexahydro-1H-pyrido[3′,4′:4,5]pyrrolo[1,2,3-de]quinoxalin-8(9H)-yl)butan-1-one p-toluenesulfonate] | substantially the same receptor binding profile | – | – | – |
| – | – | – | – | O=C(CCCN1CC[C@H]2[C@@H](C1)c1cccc3c1N2CCN3)c1ccc(F)cc1 [Example Q-1A] | – | 0.03 | 0.031 to 0.078 | Ki (Dopamine D1): 0.11 µM; Ki (Serotonin 5-HT2A [6]): 0.002 µM |
| – | – | – | – | O=C1CN2c3c(cccc3[C@@H]3CN(CCCC(=O)c4ccc(F)cc4)CC[C@@H]32)N1 [Example Q-1] | – | 0.05 to 0.25 | > 0.6 | – |
| – | – | 231 | 56 | CN1CCN2c3c(cccc31)[C@@H]1CN(CCCC(=O)c3ccc(F)cc3)CC[C@@H]12 [Formula Q, 4-((6bR,10aS)-3-methyl-2,3,6b,9,10,10a-hexahydro-1H-pyrido[3′,4′: 4,5]pyrrolo[1,2,3-de]quinoxalin-8(7H)-yl)-1-(4-fluorophenyl)-1-butanone, reference compound] | – | – | – | less net AUC of parent compound, SL compared to SC administration ([4]; SL vs SC): 10% |

From patent US12194044B2, “Organic compounds” (priority 2016, dated 2025)
